Data reported in US20260345517A1, “DOSAGE REGIMENS FOR TREATING STARGARDT DISEASE” (Alkeus Pharmaceuticals, Inc., priority 2024, published 2026).

Assay: TEASE-1: safety and adverse events
Assay type: in vivo, human
Description: The Tolerability and Effects of gildeuretinol acetate in Stargardt Disease (Clinical trial group 1 also known as TEASE-1) was a 24-month, multicenter, double-masked, placebo-controlled trial designed to evaluate the efficacy and safety of daily oral gildeuretinol acetate in slowing the growth of atrophic retinal lesions in Stargardt disease patients. The trial was conducted at multiple sites in the United States (NCT02402660).
Patients 12 years or older, clinically diagnosed with Stargardt disease, with at least one ABCA4 mutation, at least one eye presenting with well-demarcated areas of reduced fundus autofluorescence, and with any visual acuity, were eligible.
Patients were randomized to gildeuretinol acetate 14 mg capsules, gildeuretinol acetate 24 mg capsules, or placebo capsules, to be taken once daily for one year. After one year, 50% of randomly selected patients receiving placebo were crossed over in a 1:1 ratio to gildeuretinol acetate 14 mg capsules or gildeuretinol acetate 24 mg capsules for a second year.
Gildeuretinol acetate and placebo capsules were identical appearing capsules. Patients were advised to avoid vitamin A-containing supplements and liver-based products. Fruits and vegetables contain beta-carotene, not preformed vitamin A, and could be consumed without limitation. Trial visits occurred at 8 weeks and 6, 12, 18, and 24 months following screening and randomization.

## CC(=O)OC/C=C(C)/C=C/C=C(C)/C=C/C1=C(C)CCCC1(C)C [gildeuretinol acetate, C20-D3-retinol acetate]
14 mg and 24 mg
  changes by physical examination, electrocardiogram, vital signs, hematology, biochemistry and lipid panels: no changes were attributed to gildeuretinol acetate
  changes in visual acuity: No changes in visual acuity were observed
  discontinuation due to side effects: no patient discontinued treatment due to side effects
  serious adverse events: No serious adverse events
  severity of adverse events: mild or moderate
14 mg and 24 mg vs placebo
  association between treatment groups and frequency of adverse events: no association was observed
14 mg, N = 15
  Abdominal discomfort: 0 patients (%)
  Abdominal distension: 0 patients (%)
  Abdominal pain upper: 0 patients (%)
  Abnormal dreams: 0 patients (%)
  Adverse events, Overall: 12 (80) patients (%)
  Alanine aminotransferase increased: 1 (6.7) patients (%)
  Alopecia: 2 (13.3) patients (%)
  Ankle fracture: 1 (6.7) patients (%)
  Arthralgia: 1 (6.7) patients (%)
  Arthritis: 0 patients (%)
  Aspartate aminotransferase increased: 1 (6.7) patients (%)
  Back injury: 0 patients (%)
  Back pain: 0 patients (%)
  Blepharospasm: 0 patients (%)
  Blood cholesterol increased: 0 patients (%)
  Blood creatinine increased: 1 (6.7) patients (%)
  Blood iron decreased: 0 patients (%)
  Blood pressure increased: 0 patients (%)
  Blood triglycerides increased: 1 (6.7) patients (%)
  Bowel movement irregularity: 0 patients (%)
  Bronchitis: 0 patients (%)
  Cartilage injury: 1 (6.7) patients (%)
  Conjunctival laceration: 0 patients (%)
  Conjunctivitis: 1 (6.7) patients (%)
  Constipation: 0 patients (%)
  Cough: 0 patients (%)
  Death: 1 (6.7) patients (%)
  Depression: 1 (6.7) patients (%)
  Diarrhoea: 1 (6.7) patients (%)
  Diplopia: 0 patients (%)
  Dry eye: 0 patients (%)
  Dry mouth: 1 (6.7) patients (%)
  Dry skin: 0 patients (%)
  Ear discomfort: 0 patients (%)
  Ear infection: 0 patients (%)
  Ear pain: 0 patients (%)
  Eczema: 0 patients (%)
  Electrocardiogram abnormal: 0 patients (%)
  Erythema: 0 patients (%)
  Eye irritation: 1 (6.7) patients (%)
  Eye pain: 0 patients (%)
  Eye pruritus: 0 patients (%)
  Face injury: 1 (6.7) patients (%)
  Faeces soft: 1 (6.7) patients (%)
  Fall: 1 (6.7) patients (%)
  Gastroenteritis: 1 (6.7) patients (%)
  Gastroenteritis viral: 0 patients (%)
  Hair texture abnormal: 0 patients (%)
  Hand fracture: 1 (6.7) patients (%)
  Headache: 1 (6.7) patients (%)
  Herpes zoster: 1 (6.7) patients (%)
  Hordeolum: 0 patients (%)
  Hypertension: 0 patients (%)
  Hypobarism: 0 patients (%)
  Hypothyroidism: 0 patients (%)
  Hysterectomy: 0 patients (%)
  Inflammation: 0 patients (%)
  Influenza: 0 patients (%)
  Insomnia: 1 (6.7) patients (%)
  Intracranial pressure increased: 0 patients (%)
  Irritability: 0 patients (%)
  Jaw operation: 0 patients (%)
  Knee arthroplasty: 1 (6.7) patients (%)
  Laryngitis: 1 (6.7) patients (%)
  Lip swelling: 0 patients (%)
  Low density lipoprotein increased: 1 (6.7) patients (%)
  Muscle spasms: 1 (6.7) patients (%)
  Muscle strain: 0 patients (%)
  Musculoskeletal pain: 1 (6.7) patients (%)
  Nasopharyngitis: 2 (13.3) patients (%)
  Nausea: 0 patients (%)
  Neck pain: 0 patients (%)
  Nephrolithiasis: 1 (6.7) patients (%)
  Nerve compression: 0 patients (%)
  Neuralgia: 1 (6.7) patients (%)
  Obsessive-compulsive disorder: 0 patients (%)
  Oropharyngeal pain: 0 patients (%)
  Osteoporosis: 0 patients (%)
  Pain: 2 (13.3) patients (%)
  Pain in extremity: 1 (6.7) patients (%)
  Pain in jaw: 0 patients (%)
  Peripheral coldness: 0 patients (%)
  Pharyngitis streptococcal: 1 (6.7) patients (%)
  Photophobia: 1 (6.7) patients (%)
  Photopsia: 1 (6.7) patients (%)
  Plantar fasciitis: 1 (6.7) patients (%)
  Pleurisy: 0 patients (%)
  Pneumonia: 0 patients (%)
  Premenstrual syndrome: 0 patients (%)
  Punctate keratitis: 1 (6.7) patients (%)
  Pyrexia: 0 patients (%)
  Radius fracture: 1 (6.7) patients (%)
  Rash: 1 (6.7) patients (%)
  Rotator cuff syndrome: 0 patients (%)
  Sialoadenitis: 1 (6.7) patients (%)
  Sinus congestion: 0 patients (%)
  Sinusitis: 1 (6.7) patients (%)
  Sjogren's syndrome: 1 (6.7) patients (%)
  Skin infection: 0 patients (%)
  Subdural haematoma: 1 (6.7) patients (%)
  Syncope: 0 patients (%)
  Tendonitis: 1 (6.7) patients (%)
  Thoracic outlet syndrome: 0 patients (%)
  Tongue dry: 1 (6.7) patients (%)
  Tooth abscess: 0 patients (%)
  Tooth extraction: 0 patients (%)
  Toothache: 0 patients (%)
  Upper respiratory tract infection: 1 (6.7) patients (%)
  Vision blurred: 1 (6.7) patients (%)
  Visual field defect: 0 patients (%)
  Visual impairment: 1 (6.7) patients (%)
  Vitamin B12 deficiency: 1 (6.7) patients (%)
  Vitamin D decreased: 2 (13.3) patients (%)
  Vitreous floaters: 1 (6.7) patients (%)
  Vulvovaginal candidiasis: 0 patients (%)
  Wrist fracture: 0 patients (%)
  Xanthelasma: 0 patients (%)
24 mg, 12-month visit, ocular exam
  blurred optic disc margins with transient visual obscuration: observed in one patient
24 mg, N = 15
  Abdominal discomfort: 1 (6.7) patients (%)
  Abdominal distension: 1 (6.7) patients (%)
  Abdominal pain upper: 1 (6.7) patients (%)
  Abnormal dreams: 1 (6.7) patients (%)
  Adverse events, Overall: 13 (86.7) patients (%)
  Alanine aminotransferase increased: 0 patients (%)
  Alopecia: 0 patients (%)
  Ankle fracture: 0 patients (%)
  Arthralgia: 1 (6.7) patients (%)
  Arthritis: 0 patients (%)
  Aspartate aminotransferase increased: 0 patients (%)
  Back injury: 0 patients (%)
  Back pain: 1 (6.7) patients (%)
  Blepharospasm: 0 patients (%)
  Blood cholesterol increased: 1 (6.7) patients (%)
  Blood creatinine increased: 0 patients (%)
  Blood iron decreased: 1 (6.7) patients (%)
  Blood pressure increased: 1 (6.7) patients (%)
  Blood triglycerides increased: 0 patients (%)
  Bowel movement irregularity: 1 (6.7) patients (%)
  Bronchitis: 0 patients (%)
  Cartilage injury: 0 patients (%)
  Conjunctival laceration: 1 (6.7) patients (%)
  Conjunctivitis: 0 patients (%)
  Constipation: 1 (6.7) patients (%)
  Cough: 2 (13.3) patients (%)
  Death: 0 patients (%)
  Depression: 0 patients (%)
  Diarrhoea: 0 patients (%)
  Diplopia: 1 (6.7) patients (%)
  Dry eye: 1 (6.7) patients (%)
  Dry mouth: 0 patients (%)
  Dry skin: 1 (6.7) patients (%)
  Ear discomfort: 1 (6.7) patients (%)
  Ear infection: 0 patients (%)
  Ear pain: 0 patients (%)
  Eczema: 0 patients (%)
  Electrocardiogram abnormal: 0 patients (%)
  Erythema: 0 patients (%)
  Eye irritation: 0 patients (%)
  Eye pain: 1 (6.7) patients (%)
  Eye pruritus: 1 (6.7) patients (%)
  Face injury: 0 patients (%)
  Faeces soft: 0 patients (%)
  Fall: 1 (6.7) patients (%)
  Gastroenteritis: 0 patients (%)
  Gastroenteritis viral: 1 (6.7) patients (%)
  Hair texture abnormal: 0 patients (%)
  Hand fracture: 0 patients (%)
  Headache: 2 (13.3) patients (%)
  Herpes zoster: 0 patients (%)
  Hordeolum: 1 (6.7) patients (%)
  Hypertension: 1 (6.7) patients (%)
  Hypobarism: 1 (6.7) patients (%)
  Hypothyroidism: 1 (6.7) patients (%)
  Hysterectomy: 1 (6.7) patients (%)
